For one data set, the system named is TEAD1/3, TAZ. Put plainly: Immunoblot in A172 cells. The conditions noted are these: 24 h. The data set is classed as cell-based. As for the experimental part: (§1) Immunoblotting was carried out as previously described.^[ [29] ^] Cells were seeded in 6‐well plates (Yeasen, #84011ES50) at a density of 1 million cells per well. The following day, cells were treated with compounds at the required concentrations, with the DMSO concentration kept below 0.4‰ to prevent toxic effects on the cells. The collected cell pellets were washed three times with PBS (Meilunbio, #MA0015) and resuspended in 120 µL of RIPA lysis buffer (Meilunbio, #MA0151) containing 1% protease inhibitor (Meilunbio, #MB2678‐2). The cells were then sonicated on ice and centrifuged at 12 000 rpm for 15 min at 4 °C to remove cellular debris. Protein concentrations were determined using the BCA Protein Quantification Kit (Meilunbio, #MA0082‐1). The protein samples were normalized, boiled at 99 °C for 10 min, and then subjected to electrophoresis on a 10% SDS‐PAGE gel. The separated protein bands were transferred to nitrocellulose membranes, blocked with TBST containing 5% BSA, and incubated with the indicated primary antibodies. Finally, the blots were imaged using an Amersham Typhoon NIR imager.
(In general: A western blot detects proteins with antibodies after separation by electrophoresis.)

The target of data set [1] is TEAD1 (Homo sapiens, UniProt P28347). Put plainly: Immunoblot of TEAD1 degradation in TEAD1-mNeonGreen fusion NCI-H1299 cells. Type of data set: cell-based. Further details: endogenous in cells; host or cells: NCI-H1299 (TEAD1-mNeonGreen knock-in). To be noted: 100 nM, TEAD1-mNeonGreen fusion NCI-H1299 cells. As for the experimental part:
as §1

The subject of another data set is MSTO-211H xenograft. Put plainly: MSTO-211H xenograft pharmacodynamic study (3 mg/kg i.p.). The data set is classed as in vivo, BALB/c nude mice. To be noted: 3 mg/kg i.p. q.d. 21 days. As for the experimental part: Animal experiments were conducted by Medsyin (Shanghai) Co., Ltd. The experimental protocol was approved by the IACUC of the company (No.: PZWH20240527‐1) and strictly adhered to the guidelines of AAALAC. The specific procedures are as follows: 5 × 10^6 MSTO‐211H cells were suspended in 100 µL of a mixture of PBS and Matrigel and inoculated subcutaneously into the right axilla of 6‐week‐old BALB/c nude mice. Drug administration was initiated on day 7 after cell inoculation (when the average tumor volume was ≈150 mm^3). The experiment was divided into two groups: one group served as the control group, and the other group received drug administration via intraperitoneal injection at a dose of 3 mg kg^−1 (6 mice in each group), once a day for 21 consecutive days. During the experiment, the body weight and tumor volume of the mice were measured twice a week. At the end of the experiment, the mice were sacrificed and tumor tissues were collected.

Data set [2] deals with T1, TEAD1 (Homo sapiens, UniProt P28347+Q96SW2).
T1 construct: endogenous in cells; host or cells: NCI-H1299 (TEAD1-mNeonGreen knock-in)
Put plainly: Immunoblot of TEAD1 degradation in TEAD1-mNeonGreen fusion NCI-H1299 cells. The data set is classed as cell-based. On the procedure: as §1

Data set [3] is described as follows: 7-day toxicological study in MSTO-211H tumor-bearing mice. To be noted: 10 or 30 mg/kg i.p. daily, 7 days. The data set is classed as in vivo. As for the experimental part:
A toxicological evaluation was conducted using an MSTO‐211H xenograft mouse model. All animal studies were carried out in accordance with protocols approved by the Institutional Animal Care and Use Committees of Tongji University and the Chinese Academy of Sciences, and in compliance with national, institutional and local regulations. These experiments were conducted in specific‐pathogen‐free (SPF) and Helicobacter‐free facilities at both institutions. After 7 consecutive days of drug administration (10 mg kg^−1 or 30 mg kg^−1, i.p., q.d.), whole blood and major organs—including the heart, liver, spleen, lungs, and kidneys—were collected for analysis. Blood samples were anticoagulated with EDTA (1.5 mg mL^−1), gently mixed, and subjected to standard hematological assessment. Tissue samples were processed for both paraffin‐embedded and frozen section analysis. Paraffin embedding involved fixation, graded dehydration, clearing, embedding, sectioning at 4 µm, and dewaxing to water. Frozen sections were prepared by embedding tissues in OCT compound, sectioning at −20 °C with a thickness of 8 µm, followed by acetone fixation and rinsing with PBS. […] Microscopic examinations and image acquisition were carried out, and quantitative analyses were performed using specialized image analysis software. […]

In a further data set the test system is ES2 xenograft. Put plainly: ES2 xenograft efficacy study. The data set is classed as in vivo, BALB/c nude mice. To be noted: 10 and 30 mg/kg. As for the experimental part:
Animal experiments were conducted by Medsyin (Shanghai) Co., Ltd. The experimental protocol was approved by the IACUC of the company (No.: PZWH‐2025031003) and strictly adhered to the guidelines of the AAALAC. The specific procedures are as follows: 5 × 10^6 MSTO‐211H cells or ES2 cells were suspended in 100 µL of a mixture of PBS and Matrigel and inoculated subcutaneously into the right axilla of 6‐week‐old BALB/c nude mice. Drug administration was initiated on day 7 after cell inoculation (when the average tumor volume was ≈150 mm^3). The experiment was divided into four groups with 6 mice in each group. The specific grouping and administration methods are as follows: control group, KY‐001 group (10 mg kg^−1, p.o.), KG‐FP‐003 (10 mg kg^−1 or 30 mg kg^−1, i.p.). The administration routes included intraperitoneal injection and intragastric administration, once a day for 21 consecutive days. During the experiment, the body weight and tumor volume of the mice were measured twice a week. At the end of the experiment, the mice were sacrificed and tumor tissues were collected.

T1 sequence (P28347 whole entry): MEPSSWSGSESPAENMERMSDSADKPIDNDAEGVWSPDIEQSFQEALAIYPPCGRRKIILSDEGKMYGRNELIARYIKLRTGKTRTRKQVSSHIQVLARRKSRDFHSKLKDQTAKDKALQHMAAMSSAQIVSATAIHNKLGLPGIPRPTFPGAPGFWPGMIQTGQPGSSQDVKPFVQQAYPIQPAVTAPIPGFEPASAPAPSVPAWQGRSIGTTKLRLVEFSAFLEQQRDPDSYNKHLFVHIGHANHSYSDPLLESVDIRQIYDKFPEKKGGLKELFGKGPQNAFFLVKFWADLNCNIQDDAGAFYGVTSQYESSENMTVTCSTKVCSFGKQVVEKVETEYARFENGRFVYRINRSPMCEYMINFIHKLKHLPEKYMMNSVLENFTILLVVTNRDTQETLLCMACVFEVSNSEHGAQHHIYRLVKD
T1 sequence (Q96SW2 whole entry): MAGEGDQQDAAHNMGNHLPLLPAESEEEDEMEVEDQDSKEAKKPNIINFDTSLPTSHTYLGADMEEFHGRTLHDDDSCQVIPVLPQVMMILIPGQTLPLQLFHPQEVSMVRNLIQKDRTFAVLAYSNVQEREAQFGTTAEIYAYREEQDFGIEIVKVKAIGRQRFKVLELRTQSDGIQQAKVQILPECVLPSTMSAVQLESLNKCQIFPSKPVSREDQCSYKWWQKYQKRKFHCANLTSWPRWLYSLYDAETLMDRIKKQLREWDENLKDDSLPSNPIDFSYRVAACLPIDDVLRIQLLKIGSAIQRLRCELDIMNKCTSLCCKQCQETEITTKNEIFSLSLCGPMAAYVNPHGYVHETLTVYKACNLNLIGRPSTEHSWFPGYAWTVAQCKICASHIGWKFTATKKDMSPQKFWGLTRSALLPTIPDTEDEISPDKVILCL
T1 sequence (Q16531 2-1140 partner limits assumed): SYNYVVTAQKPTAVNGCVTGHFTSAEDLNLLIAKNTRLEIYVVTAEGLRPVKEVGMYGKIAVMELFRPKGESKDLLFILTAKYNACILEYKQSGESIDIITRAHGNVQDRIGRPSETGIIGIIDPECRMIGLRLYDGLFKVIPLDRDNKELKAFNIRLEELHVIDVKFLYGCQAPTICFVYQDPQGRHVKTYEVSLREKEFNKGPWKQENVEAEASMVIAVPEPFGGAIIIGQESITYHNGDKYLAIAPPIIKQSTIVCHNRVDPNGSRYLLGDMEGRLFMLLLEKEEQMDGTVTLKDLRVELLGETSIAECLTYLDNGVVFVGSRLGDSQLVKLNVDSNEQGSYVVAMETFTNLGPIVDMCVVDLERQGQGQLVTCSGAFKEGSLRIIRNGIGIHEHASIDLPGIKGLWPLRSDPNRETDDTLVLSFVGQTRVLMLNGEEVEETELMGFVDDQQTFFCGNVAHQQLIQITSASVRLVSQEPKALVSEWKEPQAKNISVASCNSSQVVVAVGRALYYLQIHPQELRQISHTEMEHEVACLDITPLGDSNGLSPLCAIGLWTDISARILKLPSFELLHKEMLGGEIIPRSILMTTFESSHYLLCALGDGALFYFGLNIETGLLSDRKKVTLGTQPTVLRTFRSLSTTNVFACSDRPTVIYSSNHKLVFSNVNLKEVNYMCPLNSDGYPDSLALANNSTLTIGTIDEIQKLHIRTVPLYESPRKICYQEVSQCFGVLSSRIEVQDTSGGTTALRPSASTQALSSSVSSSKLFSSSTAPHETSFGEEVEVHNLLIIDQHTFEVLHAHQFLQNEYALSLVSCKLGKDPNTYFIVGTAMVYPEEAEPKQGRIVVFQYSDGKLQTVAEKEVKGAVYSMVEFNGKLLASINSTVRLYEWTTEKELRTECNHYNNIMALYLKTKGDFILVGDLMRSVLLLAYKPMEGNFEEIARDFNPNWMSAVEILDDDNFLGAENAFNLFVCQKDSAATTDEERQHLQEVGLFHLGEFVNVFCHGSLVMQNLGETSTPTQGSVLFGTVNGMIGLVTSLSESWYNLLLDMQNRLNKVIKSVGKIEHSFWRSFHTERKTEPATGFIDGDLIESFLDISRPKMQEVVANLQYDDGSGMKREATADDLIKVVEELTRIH
Chain of TEAD1 (Homo sapiens, UniProt P28347) (P28347 whole entry, the tested form may be a part): as the sequence (P28347 whole entry) above
Chain of TEAD1 (Homo sapiens, UniProt P28347) (Q96SW2 whole entry, further chain, the tested form may be a part): as the sequence (Q96SW2 whole entry) above
Chain of TEAD1 (Homo sapiens, UniProt P28347) (Q16531 2-1140 partner limits assumed): as the sequence (Q16531 2-1140 partner limits assumed) above

Consider `CNC(=O)c1cc2c(c(F)c1-c1c(Cl)c(F)cc3c1C[C@@](CN[C@H]1CC[C@H](C(=O)N4CCC(CC5CCN(C(=O)COc6ccc(N7CCC(=O)NC7=O)c(C)c6)CC5)CC4)CC1)(c1ccccc1)O3)[C@@H](O)[C@@H](C)C2` [KG-FP-003], for which, in the data set with TEAD1/3, TAZ, the “Degradation of TEAD1 and TEAD3 by immunoblot” value was “complete degradation”; the “TAZ protein expression by immunoblot” value is “increased TAZ protein expression”. Further, on TEAD1 [1], the “Duration of sustained TEAD1 degradation” value is “up to 12 days”. Moreover, in the data set on MSTO-211H xenograft, the “TEAD1 protein degradation in tumor” value is “pronounced degradation of TEAD1 protein” and the “Tumor growth inhibition versus vehicle” value is on record as “significant tumor growth inhibition”. Besides, at TEAD1 [2] (10 nM, 6 h, TEAD1-mNeonGreen NCI-H1299 cells), the “Target degradation by immunoblot” value is listed as “significant target degradation”. The “Time to near-complete depletion of TEAD1” value at TEAD1 [2] (100 nM, TEAD1-mNeonGreen fusion NCI-H1299 cells) was at most 2 h. In data set [3], the Hematological analyses entry is recorded as “no significant deviations from baseline” and the “Histopathological examination of heart, liver, spleen, lungs, kidneys” value is reported as “no structural abnormalities or pathological lesions”. For the same compound, the “Tumor response in ES2 xenograft” value with ES2 xenograft is reported as “significant tumor regression”.

Source of the values: article PMC12752627, “Discovery of a Potent and Selective TEAD Degrader with Durable Degradation Activity” (Advanced Science, 2025).
